According to US7935526B2, “hERG channel-expressing cell” (priority 2003, dated 2011):

System: hERG channel-expressing cells
Protocol: Specifically, changes in membrane potential may be measured by performing the following operations in a manner as described below. The hERG channel-expressing cell of the invention is cultured for a specific period of time by the appropriate method as described above and suspended in a buffer suitable for measurement. […] Preferably, phosphate buffered saline (pH 7.4) is used. It is preferred that the cell suspension be prepared to give a concentration of 0.2×10^5 cells/ml to 1.0×10^6 cells/ml. Subsequently, the cell suspension is plated on plates (such as Biocoat Poly-D-Lysine 384-Well Black/Clear Plate; BECKTON DICKINSON) and cultured further Cells may be plated at 500 cells/well to 25000 cells/well. Preferably, cells are cultured for about two days after the plating. […] About one hour after the addition of Component A, changes in membrane potential may be measured with FLIPR (Molecular Devices) or FDSS6000 (Hamamatsu Photonics). […] Measurement may be performed at room temperature. hERG inhibitory activity may be calculated from the change in fluorescence intensity caused by the addition of the test compound. […]
About one hour after the addition of Component A, changes in membrane potential were measured with FDSS6000. […] Measurement was performed at room temperature. hERG inhibitory activity was calculated from the fluorescence intensity change for 5 min after the addition of the test substance. […]

## [Cl-].[K+] [KCl]
  changes in membrane potential (fluorescence intensity change): the membrane potential was depolarized
